In ChEMBL document CHEMBL5465560, “Selectivity Literature for EUbOPEN Chemogenomic Library” (2024):

Assays:
[1] = molecular target: Cyclin-dependent kinase-like 1 (Homo sapiens) (UniProt Q00532); assay: Selectivity interaction (Ambit KINOMEscan and KiNATiv profiling in Jurkat cells) EUB0000090b CDKL1; assay type: cell-based; details: at 1 µM
[2] = molecular target: T1, Serine/threonine-protein kinase Nek11 (Homo sapiens) (UniProt Q8NG66); assay: Selectivity interaction (Ambit KINOMEscan and KiNATiv profiling in Jurkat cells) EUB0000090b NEK11; assay type: cell-based; details: at 1 µM
T1 sequence (whole entry): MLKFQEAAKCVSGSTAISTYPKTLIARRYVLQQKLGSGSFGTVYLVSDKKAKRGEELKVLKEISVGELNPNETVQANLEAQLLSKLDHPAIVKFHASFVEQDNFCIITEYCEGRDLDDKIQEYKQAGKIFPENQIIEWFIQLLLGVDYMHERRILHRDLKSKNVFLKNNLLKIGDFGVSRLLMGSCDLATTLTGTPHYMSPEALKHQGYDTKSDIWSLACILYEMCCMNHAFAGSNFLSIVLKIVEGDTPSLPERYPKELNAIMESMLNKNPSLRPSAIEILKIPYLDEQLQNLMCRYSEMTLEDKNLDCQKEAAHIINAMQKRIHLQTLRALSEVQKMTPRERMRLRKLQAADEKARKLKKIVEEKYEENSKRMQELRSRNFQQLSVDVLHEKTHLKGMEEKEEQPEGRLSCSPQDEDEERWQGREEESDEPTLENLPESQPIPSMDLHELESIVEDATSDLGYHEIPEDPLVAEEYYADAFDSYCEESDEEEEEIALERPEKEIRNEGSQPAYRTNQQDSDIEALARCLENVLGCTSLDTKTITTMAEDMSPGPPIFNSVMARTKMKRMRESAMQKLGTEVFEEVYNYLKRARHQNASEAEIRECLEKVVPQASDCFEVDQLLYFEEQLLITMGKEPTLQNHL

[3] = molecular target: Cyclin-dependent kinase 16 (Homo sapiens) (UniProt Q00536); assay: Selectivity interaction (KinomeScan (DiscoverX)) EUB0000655a CDK16; details: at 10 µM
[4] = molecular target: T2, Aurora kinase C (Homo sapiens) (UniProt Q9UQB9); details: at 10 µM
T2 sequence (whole entry): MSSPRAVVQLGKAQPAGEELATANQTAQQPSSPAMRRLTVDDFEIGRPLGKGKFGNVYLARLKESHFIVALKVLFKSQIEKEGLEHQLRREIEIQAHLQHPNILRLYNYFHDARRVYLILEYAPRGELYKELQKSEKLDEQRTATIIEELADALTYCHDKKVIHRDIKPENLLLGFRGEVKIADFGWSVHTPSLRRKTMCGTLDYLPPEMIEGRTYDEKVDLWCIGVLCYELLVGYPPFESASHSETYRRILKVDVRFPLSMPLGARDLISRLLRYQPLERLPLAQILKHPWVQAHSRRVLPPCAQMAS

[5] = molecular target: T3, Ephrin type-A receptor 3 (Homo sapiens) (UniProt P29320); details: at 10 µM
T3 sequence (whole entry): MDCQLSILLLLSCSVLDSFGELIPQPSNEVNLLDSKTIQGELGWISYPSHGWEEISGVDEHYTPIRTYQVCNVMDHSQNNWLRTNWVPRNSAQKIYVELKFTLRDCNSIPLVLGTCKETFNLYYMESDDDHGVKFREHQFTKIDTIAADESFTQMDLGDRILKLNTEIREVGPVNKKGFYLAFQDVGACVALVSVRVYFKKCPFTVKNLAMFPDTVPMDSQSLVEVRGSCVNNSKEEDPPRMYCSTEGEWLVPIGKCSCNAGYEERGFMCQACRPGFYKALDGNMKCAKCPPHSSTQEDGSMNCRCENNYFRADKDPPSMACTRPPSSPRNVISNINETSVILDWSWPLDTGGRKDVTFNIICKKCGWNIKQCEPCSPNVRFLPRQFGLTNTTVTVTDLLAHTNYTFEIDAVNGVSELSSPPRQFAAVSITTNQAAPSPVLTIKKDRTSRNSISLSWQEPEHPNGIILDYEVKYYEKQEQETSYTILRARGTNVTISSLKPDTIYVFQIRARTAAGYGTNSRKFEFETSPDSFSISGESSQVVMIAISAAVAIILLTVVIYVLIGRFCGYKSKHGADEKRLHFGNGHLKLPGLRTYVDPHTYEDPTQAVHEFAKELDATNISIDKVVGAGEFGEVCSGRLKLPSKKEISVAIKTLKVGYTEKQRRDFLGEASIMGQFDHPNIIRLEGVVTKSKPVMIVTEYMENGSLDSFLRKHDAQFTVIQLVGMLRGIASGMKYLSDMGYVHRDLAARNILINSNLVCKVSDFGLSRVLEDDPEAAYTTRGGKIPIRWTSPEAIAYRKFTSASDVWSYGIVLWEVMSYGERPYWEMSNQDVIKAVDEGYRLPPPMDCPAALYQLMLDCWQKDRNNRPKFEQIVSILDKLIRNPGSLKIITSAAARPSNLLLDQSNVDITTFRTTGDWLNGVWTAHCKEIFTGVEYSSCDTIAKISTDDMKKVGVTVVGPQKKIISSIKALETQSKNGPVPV

[6] = molecular target: Ribosomal protein S6 kinase alpha-3 (Homo sapiens, UniProt P51812); assay: Selectivity interaction (ActivX KiNativ screen (kinase selectivity in THP-1 cell lysates)) EUB0000639a RPS6KA3; assay type: subcellular; details: lysate, at 0.2 µM
[7] = molecular target: Mitogen-activated protein kinase kinase kinase 4 (Homo sapiens) (UniProt Q9Y6R4); assay: Selectivity interaction (KinomeScan (DiscoverX)) EUB0000229b MAP3K4; details: at 10 µM
[8] = molecular target: T4, Aurora kinase A (Homo sapiens) (UniProt O14965); assay: Selectivity interaction (ProQinase) EUB0000171b STK6
T4 sequence (whole entry): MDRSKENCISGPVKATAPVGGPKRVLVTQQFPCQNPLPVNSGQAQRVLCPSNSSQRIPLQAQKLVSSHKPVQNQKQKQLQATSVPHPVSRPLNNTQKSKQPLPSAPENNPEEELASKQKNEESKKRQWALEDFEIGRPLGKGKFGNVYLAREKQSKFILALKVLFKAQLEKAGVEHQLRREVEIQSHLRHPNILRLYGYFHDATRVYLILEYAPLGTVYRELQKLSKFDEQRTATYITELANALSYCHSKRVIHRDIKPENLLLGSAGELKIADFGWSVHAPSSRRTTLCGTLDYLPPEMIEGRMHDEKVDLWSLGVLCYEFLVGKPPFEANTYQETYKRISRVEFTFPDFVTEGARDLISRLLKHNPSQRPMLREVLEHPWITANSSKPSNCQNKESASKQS

Ribosomal protein S6 kinase alpha-3, sequence (P51812 whole entry): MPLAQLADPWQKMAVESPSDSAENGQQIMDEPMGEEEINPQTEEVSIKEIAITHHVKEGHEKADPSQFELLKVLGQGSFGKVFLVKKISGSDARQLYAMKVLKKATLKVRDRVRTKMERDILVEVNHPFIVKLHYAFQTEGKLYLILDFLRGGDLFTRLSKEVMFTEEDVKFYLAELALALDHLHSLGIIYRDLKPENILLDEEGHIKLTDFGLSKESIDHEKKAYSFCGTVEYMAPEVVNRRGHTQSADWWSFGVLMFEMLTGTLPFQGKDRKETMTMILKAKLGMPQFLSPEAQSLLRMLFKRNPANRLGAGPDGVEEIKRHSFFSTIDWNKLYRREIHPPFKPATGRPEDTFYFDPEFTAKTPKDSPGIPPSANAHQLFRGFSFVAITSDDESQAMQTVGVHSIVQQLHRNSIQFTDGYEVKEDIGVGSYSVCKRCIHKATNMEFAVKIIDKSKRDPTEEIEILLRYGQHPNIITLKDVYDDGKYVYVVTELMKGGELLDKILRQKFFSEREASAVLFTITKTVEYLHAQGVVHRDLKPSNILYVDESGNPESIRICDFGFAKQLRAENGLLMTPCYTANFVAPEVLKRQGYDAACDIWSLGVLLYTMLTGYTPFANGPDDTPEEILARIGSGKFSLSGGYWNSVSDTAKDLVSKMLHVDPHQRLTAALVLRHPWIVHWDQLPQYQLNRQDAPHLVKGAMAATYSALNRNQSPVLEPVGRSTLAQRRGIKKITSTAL
Cyclin-dependent kinase 16 (Homo sapiens), sequence (Q00536 whole entry): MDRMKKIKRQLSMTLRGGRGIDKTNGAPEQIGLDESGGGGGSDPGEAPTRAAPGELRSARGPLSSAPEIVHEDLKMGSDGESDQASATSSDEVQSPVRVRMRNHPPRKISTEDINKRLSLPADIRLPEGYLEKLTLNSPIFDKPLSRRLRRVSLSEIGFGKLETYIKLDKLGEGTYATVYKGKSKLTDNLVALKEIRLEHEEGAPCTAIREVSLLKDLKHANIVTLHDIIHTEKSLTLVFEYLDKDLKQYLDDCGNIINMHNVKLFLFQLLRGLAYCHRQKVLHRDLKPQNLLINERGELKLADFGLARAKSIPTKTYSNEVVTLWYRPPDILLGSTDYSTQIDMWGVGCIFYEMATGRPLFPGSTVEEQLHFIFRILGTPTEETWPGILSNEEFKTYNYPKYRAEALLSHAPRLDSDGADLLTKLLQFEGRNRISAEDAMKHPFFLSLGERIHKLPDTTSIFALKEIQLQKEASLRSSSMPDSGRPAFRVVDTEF
Cyclin-dependent kinase-like 1 (Homo sapiens), sequence (Q00532 whole entry): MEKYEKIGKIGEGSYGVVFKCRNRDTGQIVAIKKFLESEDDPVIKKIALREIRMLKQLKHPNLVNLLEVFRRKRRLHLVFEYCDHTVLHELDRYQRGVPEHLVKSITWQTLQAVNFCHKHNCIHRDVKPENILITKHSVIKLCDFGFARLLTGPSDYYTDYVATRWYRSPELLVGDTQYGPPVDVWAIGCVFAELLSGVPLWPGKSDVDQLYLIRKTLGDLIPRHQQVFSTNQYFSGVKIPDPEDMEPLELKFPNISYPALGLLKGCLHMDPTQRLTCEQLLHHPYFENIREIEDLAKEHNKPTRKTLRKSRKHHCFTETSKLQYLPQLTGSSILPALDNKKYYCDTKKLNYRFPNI
Mitogen-activated protein kinase kinase kinase 4 (Homo sapiens), sequence (Q9Y6R4 whole entry): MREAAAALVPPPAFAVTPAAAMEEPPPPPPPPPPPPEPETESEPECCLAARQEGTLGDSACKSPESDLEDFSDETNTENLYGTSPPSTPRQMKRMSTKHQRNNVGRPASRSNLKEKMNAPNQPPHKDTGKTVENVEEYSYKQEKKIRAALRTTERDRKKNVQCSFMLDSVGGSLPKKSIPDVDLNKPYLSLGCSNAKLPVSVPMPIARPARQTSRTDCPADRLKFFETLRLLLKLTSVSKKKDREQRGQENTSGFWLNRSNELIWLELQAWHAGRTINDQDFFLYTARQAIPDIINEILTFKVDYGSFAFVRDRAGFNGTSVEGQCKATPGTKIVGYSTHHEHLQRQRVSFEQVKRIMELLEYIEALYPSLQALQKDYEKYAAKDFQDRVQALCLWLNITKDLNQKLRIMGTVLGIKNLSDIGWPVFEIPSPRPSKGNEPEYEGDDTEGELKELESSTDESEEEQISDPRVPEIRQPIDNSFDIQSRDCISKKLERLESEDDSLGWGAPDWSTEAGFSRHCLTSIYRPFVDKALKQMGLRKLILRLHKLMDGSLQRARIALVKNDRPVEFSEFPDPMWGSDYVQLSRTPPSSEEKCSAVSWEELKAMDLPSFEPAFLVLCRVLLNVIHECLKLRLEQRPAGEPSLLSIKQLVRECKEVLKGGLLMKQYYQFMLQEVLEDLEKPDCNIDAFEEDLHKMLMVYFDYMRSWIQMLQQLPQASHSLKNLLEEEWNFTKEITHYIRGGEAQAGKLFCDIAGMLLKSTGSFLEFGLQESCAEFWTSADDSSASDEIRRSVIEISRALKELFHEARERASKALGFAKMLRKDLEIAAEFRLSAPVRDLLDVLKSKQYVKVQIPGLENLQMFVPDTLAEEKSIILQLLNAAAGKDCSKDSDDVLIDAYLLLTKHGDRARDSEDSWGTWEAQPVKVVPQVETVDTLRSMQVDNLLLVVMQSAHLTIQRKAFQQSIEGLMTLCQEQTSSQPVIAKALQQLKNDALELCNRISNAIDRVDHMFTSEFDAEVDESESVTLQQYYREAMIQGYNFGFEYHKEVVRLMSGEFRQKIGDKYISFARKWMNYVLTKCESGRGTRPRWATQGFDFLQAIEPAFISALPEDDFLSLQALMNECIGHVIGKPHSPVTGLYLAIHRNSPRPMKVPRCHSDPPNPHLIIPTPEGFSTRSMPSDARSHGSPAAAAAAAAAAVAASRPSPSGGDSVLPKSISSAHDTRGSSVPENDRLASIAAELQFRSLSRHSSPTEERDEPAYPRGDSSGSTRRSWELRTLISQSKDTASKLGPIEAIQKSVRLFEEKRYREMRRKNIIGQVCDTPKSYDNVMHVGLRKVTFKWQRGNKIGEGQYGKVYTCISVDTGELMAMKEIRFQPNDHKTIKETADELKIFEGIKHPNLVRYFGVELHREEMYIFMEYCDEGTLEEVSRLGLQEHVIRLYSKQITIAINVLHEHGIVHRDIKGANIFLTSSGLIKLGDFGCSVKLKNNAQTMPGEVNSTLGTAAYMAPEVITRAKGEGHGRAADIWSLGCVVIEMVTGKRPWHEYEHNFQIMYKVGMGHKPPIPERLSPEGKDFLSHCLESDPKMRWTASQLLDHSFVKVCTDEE

Question: With `CN(C)C/C=C/C(=O)Nc1ccc(C(=O)N2CCCC(Nc3ncc(Cl)c(-c4c[nH]c5ccccc45)n3)C2)cc1` (centres undefined) as the molecule, how does the % of control [1] read?
Answer: The % of control was 38%.

Question: What about the % of control [2] of the same molecule?
Answer: The % of control was 90%.

Question: `CN(C)CCOc1ccc(-c2nc(-c3ccncc3)c(-c3ccc4c(c3)CC/C4=N\O)[nH]2)cc1` was tested. Which % of control [3] did it give?
Answer: The % of control was 100%.

Question: `COCC(=O)NC/C=C/c1ccc2ncnc(Nc3ccc(Oc4ccc(C)nc4)c(C)c3)c2c1` [CP-724714] was tested. Which % of control [4] did it give?
Answer: The % of control was 67%.

Question: How did the % of control [5] turn out when `Cc1cc([C@@H](C)Nc2ccccc2C(=O)O)c2nc(N3CCOCC3)cc(=O)n2c1` [AZD-6482] was run?
Answer: The % of control was 79%.

Question: `CC[C@@H]1[C@H](F)C(=O)N[C@@H]1COc1nccc2cc(C(N)=O)c(OC)cc12` [ZIMLOVISERTIB] was tested. Which % of inhibition [6] did it give?
Answer: The % of inhibition was 0%.

Question: Which % binding [7] does the source give for `COc1cc(N(C)c2ccnc3ccc(C(F)(F)F)cc23)cc(OC)c1OC` here?
Answer: The % binding was 100%.

Question: How did the % of control ([8]; at 1 µM) turn out when `C=CC(=O)Nc1cccc(C(=O)Nc2ccc(Nc3cc(-c4[nH]c(SC)nc4C)ccn3)cc2)c1` was run?
Answer: The % of control was 74%.

Question: What about the % of control ([8]; at 5 µM) of the same molecule?
Answer: The % of control was 34%.
